Read-outs that look alike come from different tables or passages of the source.
What was measured:
[1] = system: tissue strips obtained from Landrace pig bladders; assay: Functional potassium channel opening activity in isolated bladder strips (field-stimulated twitch); settings: for Index: ED50 for P1075 divided by ED50 for the test agonist in a given tissue, averaged; for EC50: amount of agent necessary to cause 50% of the agent's maximal response, read-out: ED50 (the source's name)
Protocol: Compounds were evaluated for functional potassium channel opening activity using tissue strips obtained from Landrace pig bladders.
Landrace pig bladders were obtained from female Landrace pigs of 9-30 kg. Landrace pigs were euthanized with an intraperitoneal injection of pentobarbital solution, Somlethal®, J. A. Webster Inc., Sterling, Mass. The entire bladder was removed and immediately placed into Krebs Ringer bicarbonate solution (composition, mM: NaCl, 120; NaHCO3, 20; dextrose, 11; KCl, 4.7; CaCl2, 2.5; MgSO4, 1.5; KH2PO4, 1.2; K2EDTA, 0.01, equilibrated with 5% CO2/95% O2pH 7.4 at 37° C.). Propranolol (0.004 mM) was included in all of the assays to block β-adrenoceptors. The trigonal and dome portions were discarded. Strips 3-5 mm wide and 20 mm long were prepared from the remaining tissue cut in a circular fashion. The mucosal layer was removed. One end was fixed to a stationary glass rod and the other to a Grass FT03 transducer at a basal preload of 1.0 gram. Two parallel platinum electrodes were included in the stationary glass rod to provide field stimulation of 0.05 Hz, 0.5 milli-seconds at 20 volts. This low frequency stimulation produced a stable twitch response of 100-500 centigrams. Tissues were allowed to equilibrate for at least 60 minutes and primed with 80 mM KCl. A control concentration response curve (cumulative) was generated for each tissue using the potassium channel opener P1075 as the control agonist. […] After a 60 minute rinsing period, a concentration response curve (cumulative) was generated for the test agonist in the same fashion as that used for the control agonist P1075. The maximal efficacy of each compound (expressed as % relative to P1075) is reported. The amount of agent necessary to cause 50% of the agent's maximal response (ED50) was calculated using “ALLFIT” (DeLean et al., Am. J. Physiol., 235, E97 (1980)), hereby incorporated by reference. Agonist potencies were also expressed as an index relative to P1075. The index was calculated by dividing the ED50 for P1075 by the ED50 for the test agonist in a given tissue. Each tissue was used for only one test agonist, and the indices obtained from each tissue were averaged to provide an average index of potency.

[2] = system: primary cultured guinea-pig urinary bladder (GPB) cells; assay: Membrane hyperpolarization (MHP) assay, DiBAC(4)3 / FLIPR; type: cell-based; settings: for EC50: concentration that elicits 50% of the maximal response for the test sample; for Emax / Maximal Response (% P1075): maximal steady-state hyperpolarization, normalized to response with 10 μM P1075 (100%)
Protocol: Compounds were evaluated for potassium channel opening activity using primary cultured guinea-pig urinary bladder (GPB) cells.
For the preparation of urinary bladder smooth muscle cells, urinary bladders were removed from male guinea-pigs (Hartley, Charles River, Wilmington, Mass.) weighing 300-400 g and placed in ice-cold Ca^2+-free Krebs solution (Composition, mM: KCl, 2.7; KH2PO4, 1.5; NaCl, 75; Na2HPO4, 9.6; Na2HPO4.7H2O, 8; MgSO4, 2; glucose, 5; HEPES, 10; pH 7.4). Cells were isolated by enzymatic dissociation as previously described with minor modifications (Klockner, U. and Isenberg, G., Pflugers Arch. (1985), 405, 329-339), hereby incorporated by reference. The bladder was cut into small sections and incubated in 5 mL of the Kreb's solution containing I mg/mL collagenase (Sigma, St. Louis, Mo.) and 0.2 mg/mL pronase (Calbiochem, La Jolla, Calif.) with continuous stirring in a cell incubator for 30 minutes. The mixture was then centrifuged at 1300×g for 5 minutes, and the pellet resuspended in Dulbecco's PBS (GIBCO, Gaithersburg, Md.) and recentrifuged to remove residual enzyme. The cell pellet was resuspended in 5 mL growth media (composition: Dulbecco's modified Eagle's medium supplemented with 10% fetal bovine serum, 100 units/mL penicillin, 100 units/mL streptomycin and […] amphotericin B) and further dissociated by pipetting the suspension through a flame-polished Pasteur pipette and passing it through a polypropylene mesh membrane (Spectrum, Houston, Tex.). The cell density was adjusted to 100,000 cells/mL by resuspension in growth media. Cells were plated in clear-bottomed black 96-well plates (Packard) for membrane potential studies at a density of 20,000 cells/well and maintained in a cell incubator with 90% air: 10% CO2 until confluent. Cells were confirmed to be of smooth muscle type by cytoskeletal staining using a monoclonal mouse anti human-α-smooth muscle actin (Biomeda, Foster City, Calif.).
Functional activity at potassium channels was measured by evaluating changes in membrane potential using the bis-oxonol dye DiBAC(4) (Molecular Probes) in a 96-well cell-based kinetic assay system, Fluorescent Imaging Plate Reader (FLIPR) (K. S. Schroeder et al., J. Biomed. Screen., v. 1 pp. 75-81 (1996)), hereby incorporated by reference. DiBAC(4)3 is an anionic potentiometric probe which partitions between cells and extracellular solution in a membrane potential-dependent manner. With increasing membrane potential (for example, K^+ depolarization), the probe further partitions into the cell; this is measured as an increase in fluorescence due to dye interaction with intracellular lipids and proteins. Conversely, decreasing membrane potential (hyperpolarization by potassium channel openers) evokes a decrease in fluorescence.
Confluent guinea-pig urinary bladder cells cultured in black clear-bottomed 96-well plates were rinsed twice with […] assay buffer (composition, mM: HEPES, 20; NaCl, 120; KCl, 2; CaCl2, 2; MgCl2, 1; glucose, 5; pH 7.4 at 25° C.) containing 5 μM DiBAC(4)3 and incubated with […] of the buffer in a cell incubator for 30 minutes at 37° C. to ensure dye distribution across the membrane. After recording the baseline fluorescence for 5 minutes, the reference or test compounds, prepared at 10 times the concentration in the assay buffer, were added directly to the wells. Changes in fluorescence were monitored for an additional 25 minutes. Hyperpolarization responses were corrected for any background noise and were normalized to the response observed with 10 μM of the reference compound P1075 (assigned as 100%), a potent opener of smooth muscle KATP channels (Quast et al., Mol. Pharmacol., v. 43 pp. 474-481 (1993)), hereby incorporated by reference.
Routinely, five concentrations of P1075 or test compounds (log or half-log dilutions) were evaluated and the maximal steady-state hyperpolarization values (expressed as % relative to P1075) plotted as a function of concentration. […]

[3] = Sus scrofa, maximal efficacy relative to P1075, field stimulation 0.05 Hz, 0.5 ms, 20 volts

SMILES	EC50 ([1]; Sus scrofa)	EC50 ([2]; Cavia porcellus)	EC50 [1]	EC50 [2]	Index [1]	Emax [1, 3]	Emax ([2]; Cavia porcellus)	Efficacy (% P1075) ([1]; maximal efficacy relative to P1075, field stimulation 0.05 Hz, 0.5 ms, 20 volts)	Maximal Response (% P1075) [2]
CC(C)(C)C(NC(=O)c1ccccc1)NC(=S)Nc1cccnc1 (stereo not drawn) [Example 28, N-(2,2-dimethyl-1-{[(3-pyridinylamino)carbothioyl]amino}propyl)benzamide]	42 µM	500 nM			0.004	100%	77%		
CCC(CC)(CCC#N)C(NC(=O)c1ccc(Cl)cc1)NC(=NC#N)Nc1cccnc1 (single isomer, unassigned; (-)) [Example 86, (−) 4-chloro-N-(4-cyano-1-{[(cyanoimino)(3-pyridinylamino)methyl]amino}-2,2-diethylbutyl)benzamide]			30 µM	86 nM	0.01			19 % P1075	83 % P1075
CC1=C(CC(NC(=O)c2ccc(Cl)cc2)NC(=NC#N)Nc2cccnc2)C(C)(C)CCC1 (single isomer, unassigned; (+)) [Example 88, (+) 4-chloro-N-[1-{[(cyanoimino)(3-pyridinylamino)methyl]amino}-2-(2,6,6-trimethyl-1-cyclohexen-1-yl)ethyl]benzamide]			10 µM	220 nM	0.074	36%			87 % P1075
O=C(NC(NC(=S)Nc1ccccc1F)C(F)(F)F)c1ccc(Cl)cc1 (stereo not drawn) [Example 21, 4-chloro-N-(2,2,2-trifluoro-1-{[(2-fluoroanilino)carbothioyl]amino}ethyl)benzamide]	21 µM	90 nM			0.014	86%	96%		
Cc1ccc(C(=O)NC(NC(=S)Nc2c(F)cccc2F)C(F)(F)F)cc1 (stereo not drawn) [Example 17, N-(1-{[(2,6-difluoroanilino)carbothioyl]amino}-2,2,2-trifluoroethyl)-4-methylbenzamide]	12 µM	90 nM			0.006	100%	109%		
Cc1ccc(C(=O)NC(NC(=S)Nc2ccc(F)cc2F)C(F)(F)F)cc1 (stereo not drawn) [Example 15, N-(1-{[(2,4-difluoroanilino)carbothioyl]amino}-2,2,2-trifluoroethyl)-4-methylbenzamide]	28 µM	550 nM			0.005	97%	70%		
O=C(Nc1cccnc1)NC(NC(=O)c1ccccc1)C(Cl)(Cl)Cl (stereo not drawn) [Example 40, N-(2,2,2-trichloro-1-{[(3-pyridinylamino)carbonyl]amino}ethyl)benzamide]	15 µM	120 nM			0.007	100%	100%		
CC(C)(C)OC(=O)N1CCC[C@@H]1[C@@H](NC(=O)c1ccc(Cl)cc1)NC(=NC#N)Nc1cccnc1 [Example 98, Tert-butyl (2R)-2-((R)-[(4-chlorobenzoyl)amino]{[(cyanoimino)(3-pyridinylamino)methyl]amino}methyl)-1-pyrrolidinecarboxylate]	33 µM	1100 nM			0.004	30%	62%		
Cc1ccc(C(=O)N[C@H](NC(=S)Nc2cccnc2)C(C)(C)C)cc1 [Example 23, N-((1R)-2,2-dimethyl-1-{[(3-pyridinylamino)carbothioyl]amino}propyl)-4-methylbenzamide]	16 µM	3960 nM			0.009	100%	66%		

Continued, in another order:

EC50 ([1]; Sus scrofa)	EC50 ([2]; Cavia porcellus)	EC50 [1]	EC50 [2]	SMILES	Index [1]	Emax [1, 3]	Emax ([2]; Cavia porcellus)	Efficacy (% P1075) ([1]; maximal efficacy relative to P1075, field stimulation 0.05 Hz, 0.5 ms, 20 volts)	Maximal Response (% P1075) [2]
1.8 µM	250 nM			C=CC(C)(C)CC(NC(=O)c1ccc(Cl)cc1)NC(=NC#N)Nc1cccnc1 (stereo not drawn) [Example 92, 4-chloro-N-(1-{[(cyanoimino)(3-pyridinylamino)methyl]amino}-3,3-dimethyl-4-pentenyl)benzamide]	0.047	76%	71%		
9 µM	70 nM			Cc1ccc(C(=O)NC(NC(=S)Nc2cccnc2)C(F)(F)F)cc1 (stereo not drawn) [Example 1, 4-methyl-N-(2,2,2-trifluoro-1-{[(3-pyridinylamino)carbothioyl]amino}ethyl)benzamide]	0.009	100%	116%		
5 µM	220 nM			Cc1ccc(C(=O)NC(NC(=S)Nc2cccnc2)C(C)(C)C)cc1 (stereo not drawn) [Example 22, N-(2,2-dimethyl-1-{[(3-pyridinylamino)carbothioyl]amino}propyl)-4-methylbenzamide]	0.017	100%	100%		
3 µM	40 nM			N#CN=C(Nc1cccnc1)NC(NC(=O)c1ccccc1)C(Cl)(Cl)Cl (stereo not drawn) [Example 49, N-(2,2,2-trichloro-1-{[(cyanoimino)(3-pyridinylamino)methyl]amino}ethyl)benzamide]	0.031	100%	92%		
0.42 µM			170 nM	C=CCC(C)(C)C(NC(=O)c1ccc(Cl)cc1)NC(=NC#N)Nc1cccnc1 (single isomer, unassigned; (-)) [Example 90, (−) 4-chloro-N-(1-{[(cyanoimino)(3-pyridinylamino)methyl]amino}-2,2-dimethyl-4-pentenyl)benzamide]	0.420	44%	55%		
2.4 µM	50 nM			CC(C)(C)C(NC(=O)c1ccc(I)cc1)NC(=NC#N)Nc1cccnc1 (stereo not drawn) [Example 103, N-(1-{[(cyanoimino)(3-pyridinylamino)methyl]amino}-2,2-dimethylpropyl)-4-iodobenzamide]	0.450	83%	103%		
